Each compound was assayed on phospho-serine 2056 DNA-PK in HCT116 cells (assay: DNA-PK phosphorylation at serine 2056 (cellular), ELISA in bleomycin-treated HCT116 cells). Conditions: Homo sapiens, HCT-116, 6 h, cellular; HCT116 cells, 10 μM bleomycin, six hours; read-out: IC50 pDNA-PK.
Type: cell-based
Procedure, shortened: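 HCT116 cells were treated with 10 μM bleomycin plus test compounds for six hours at 37 °C. Phospho-Ser2056 DNA-PK measured by chemiluminescent ELISA, normalised to total DNA-PKcs signal; DMSO control as blank.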
`OC(c1ccc(F)c(-c2ncnc3cc(N4CCOCC4)ccc23)c1)c1c(Cl)cncc1Cl` (centres unmarked) [Example 17, (3,5-Dichloro-pyridin-4-yl)-[4-Fluoro-3-(7-morpholin-4-yl-quinazolin-4-yl)phenyl]-methanol] was tested, and the IC50 was 0.5 to 5 µM.
With `Cn1c(C(O)c2ccc(F)c(-c3ncnc4cc(N5CCOCC5)ccc34)c2)cccc1=O` (centres unmarked) [Example 91, 6-{[4-Fluoro-3-(7-morpholin-4-yl-quinazolin-4-yl)-phenyl]hydroxy-methyl}-1-methyl-1H-pyridin-2-one] the IC50 was < 0.5 µM.
For `Cc1cnc(C)c(C(O)c2cc(-c3ncnc4cc(N5CCOCC5)ccc34)c(F)cc2F)n1` (centres unmarked) [Example 88, [2,4-Difluoro-5-(7-morpholin-4-yl-quinazolin-4-yl)-phenyl]-(3,6-dimethyl-pyrazin-2-yl)methanol], the IC50 was < 0.5 µM.
In the case of `CCn1nc(C(O)c2cc(-c3ncnc4cc(N5CCOCC5)ccc34)c(F)cc2Cl)ccc1=O` (centres unmarked) [Example 93, 6-{[2-Chloro-4-fluoro-5-(7-morpholin-4-yl-quinazolin-4-yl)phenyl]-hydroxymethyl}-2-ethyl-2H-pyridazin-3-one], the IC50 is reported as < 0.5 µM.
For `O=c1ccc(C(O)c2cc(-c3ncnc4cc(N5CCOCC5)ccc34)c(F)cc2Cl)nn1C1CC1` (centres unmarked) [Example 95, 6-{[2-Chloro-4-fluoro-5-(7-morpholin-4-yl-quinazolin-4-yl)phenyl]-hydroxymethyl}-2-cyclopropyl-2H-pyridazin-3-one], the IC50 was 0.5 to 5 µM.
Work on `COC(=O)c1ccc(C(O)c2cc(-c3ncnc4cc(N5CCOCC5)ccc34)c(F)cc2Cl)nn1` (centres unmarked) [Example 58, 6-{[2-Chloro-4-fluoro-5-(7-morpholin-4-yl-quinazolin-4-yl)phenyl]-hydroxymethyl}-pyridazine-3-carboxylic acid methyl ester] yielded an IC50 of 5 to 10 µM.

Same assay, conditions: Homo sapiens, HCT-116, cellular DNA-PK phosphorylation at serine 2056, HCT116 cells; read-out: IC50 pDNA-PK
For `OC(c1ccc(F)c(-c2ncnc3cc(N4CCOCC4)ccc23)c1)c1ncnc2sccc12` (centres unmarked) [Example 437, [4-Fluoro-3-(7-morpholin-4-yl-quinazolin-4-yl)-phenyl]thieno[2,3-d}-pyrimidin-4-yl-methanol], the IC50 was < 0.5 µM.
`COc1cncnc1C(O)c1cc(-c2ncnc3cc(N4CCOCC4)ccc23)c(F)cc1F` (centres unmarked) [Example 448, [2,4-Difluoro-5-(7-morpholin-4-yl-quinazolin-4-yl)-phenyl]-(5-methoxy-pyrimidin-4-yl)-methanol] was tested, and the IC50 was 0.5 to 5 µM.
With `Cn1c(C(O)c2cc(-c3ncnc4cc(N5CCOCC5)ccc34)c(F)cc2Cl)cccc1=O` (centres unmarked) [Example 382, 6-{[2-Chloro-4-fluoro-5-(7-morpholin-4-yl-quinazolin-4-yl)-phenyl]hydroxy-methyl}-1-methyl-1H-pyridin-2-one (Ena 2)] the IC50 was 0.5 to 5 µM.
`OC(c1ccc(F)c(-c2ncnc3cc(N4CCOCC4)ccc23)c1)c1nccnc1C(F)(F)F` (centres unmarked) [Example 476, [4-Fluoro-3-(7-morpholin-4-yl-quinazolin-4-yl)-phenyl]-(3-trifluoro-methylpyrazin-2-yl)-methanol] was tested, and the IC50 was < 0.5 µM.
`OC(c1ccc(F)c(-c2ncnc3cc(N4CCOCC4)ccc23)c1)c1ncccc1Cl` (centres unmarked) [Example 465, (3-Chloro-pyridin-2-yl)-[4-fluoro-3-(7-morpholin-4-yl-quinazolin-4-yl)-phenyl]methanol] was tested, and the IC50 was < 0.5 µM.
`OC(c1cc(-c2ncnc3cc(N4CCOCC4)ccc23)ccc1F)c1ncnc2ccsc12` (centres unmarked) [Example 405, [2-Fluoro-5-(7-morpholin-4-yl-quinazolin-4-yl)-phenyl]thieno[3,2-d}-pyrimidin-4-yl-methanol] was tested, and the IC50 was < 0.5 µM.
For `COc1nccnc1C(O)c1cc(-c2ncnc3cc(N4CCOCC4)ccc23)c(F)cc1F` (centres unmarked) [Example 453], the IC50 was < 0.5 µM.

Same assay, conditions: Homo sapiens, HCT-116, phospho-serine 2056 DNA-PK, bleomycin-treated HCT116 cells; class symbols A-D; read-out: IC50 pDNA-PK
Compound `OC(c1ccc(F)c(-c2ncnc3cc(N4CCOCC4)sc23)c1)c1nccs1` (centres unmarked) [Example 145, [4-Fluoro-3-(6-morpholin-4-yl-thieno[3,2-d}-pyrimidin-4-yl)-phenyl]thiazol-2-yl-methanol] has an IC50 of 0.5 to 5 µM.
`COc1ccc(C(O)c2cc(-c3nc(Cl)nc4cc(N5CCOCC5)ccc34)c(F)cc2Cl)nn1` (centres unmarked) [Example 132, [2-Chloro-5-(2-chloro-7-morpholin-4-yl-quinazolin-4-yl)-4-fluorophenyl]-(6-methoxy-pyridazin-3-yl)-methanol] was tested, and the IC50 was 0.5 to 5 µM.
Work on `CCOc1ccc(C(O)c2ccc(F)c(-c3ncnc4cc(N5CCOCC5)ccc34)c2)nn1` (centres unmarked) [Example 134, (6-Ethoxy-pyridazin-3-yl)-[4-fluoro-3-(7-morpholin-4-yl-quinazolin-4-yl)-phenyl] methanol] yielded an IC50 of 0.5 to 5 µM.
Compound `Fc1ccc(C(OC(F)F)c2nccs2)cc1-c1ncnc2cc(N3CCOCC3)ccc12` (centres unmarked) [Example 199, 4-[5-(Difluoro-methoxy-thiazol-2-ylmethyl)-2-fluoro-phenyl]-7-morpholin-4-yl-quinazoline] has an IC50 of 10 to 30 µM.
Compound `COc1ccc(C(C)(O)c2cc(-c3ncnc4cc(N5CCOCC5)ccc34)c(F)cc2Cl)nn1` (centres unmarked) [Example 125, 1-[2-Chloro-4-fluoro-5-(7-morpholin-4-yl-quinazolin-4-yl)-phenyl]-1-(6-methoxy-pyridazin-3-yl)-ethanol] has an IC50 of 10 to 30 µM.

Same assay, conditions: Homo sapiens, HCT-116, phospho-serine 2056 DNA-PK, bleomycin-treated HCT116 cells; read-out: IC50 pDNA-PK
For `OC(c1ccc(F)c(-c2ncnc3cc(N4CCOCC4)ccc23)c1)c1nncc2ccsc12` (centres unmarked) [Example 332, [4-Fluoro-3-(7-morpholin-4-yl-quinazolin-4-yl)-phenyl]thieno[2,3-d}-pyridazin-7-yl-], the IC50 was < 0.5 µM.
For `Cn1nc(C(C(N)=O)c2ccc(F)c(-c3ncnc4cc(N5CCOCC5)ccc34)c2)ccc1=O` (centres unmarked) [Example 317, 2-[4-Fluoro-3-(7-morpholin-4-yl-quinazolin-4-yl)-phenyl]-2-(1-methyl-6-oxo-1,6-dihydro-pyridazin-3-yl)-acetamide], the IC50 was 10 to 30 µM.
Work on `Cn1c(C(O)c2ccc(F)c(-c3ncnc4cc(N5CCOCC5)ccc34)c2)nccc1=O` (centres unmarked) [Example 360, 2-([4-Fluoro-3-(7-morpholin-4-yl-quinazolin-4-yl)-phenyl]hydroxy-methyl}-3-methyl-3H-pyrimidin-4-one] yielded an IC50 of 0.5 to 5 µM.
`NC(=O)C(c1cc(-c2ncnc3cc(N4CCOCC4)ccc23)c(F)cc1Cl)c1ncnn2cccc12` (centres unmarked) [Example 309, 2-[2-Chloro-4-fluoro-5-(7-morpholin-4-yl-quinazolin-4-yl)-phenyl]-2-[3H-pyrrolo[2,1-f][1,2,4]-triazin-(4E)-ylidene]-acetamide] was tested, and the IC50 was 10 to 30 µM.
With `COc1ccc(C(C(N)=O)c2cc(-c3ncnc4cc(N5CCOCC5)ccc34)c(F)cc2F)nn1` (centres unmarked) [Example 306, 2-[2,4-Difluoro-5-(7-morpholin-4-yl-quinazolin-4-yl)-phenyl]-2-(6-methoxy-pyridazin-3-yl)acetamide] the IC50 was 10 to 30 µM.

Same assay, conditions: cellular DNA-PK phosphorylation at serine 2056, HCT116 cells; read-out: IC50 pDNA-PK
With `Cn1c(C(O)c2cc(-c3ncnc4cc(N5CCOCC5)ccc34)c(F)cc2Cl)cccc1=O` (centres unmarked) [Example 383, 6-{[2-Chloro-4-fluoro-5-(7-morpholin-4-yl-quinazolin-4-yl)-phenyl]hydroxy-methyl}-1-methyl-1H-pyridin-2-one (Ena 1)] the IC50 was < 0.5 µM.

Same assay, conditions: cellular; HCT116 cells, 10 μM bleomycin, six hours; read-out: IC50 pDNA-PK
For `Cc1nccnc1C(O)c1cc(-c2ncnc3cc(N4CCOCC4)ccc23)c(F)cc1F` (centres unmarked) [Example 86, [2,4-Difluoro-5-(7-morpholin-4-yl-quinazolin-4-yl)-phenyl]-(3-methyl-pyrazin-2-yl)methanol], the IC50 was < 0.5 µM.
For `OC(c1ccc2nccn2n1)c1cc(-c2ncnc3cc(N4CCOCC4)ccc23)c(F)cc1Cl` (centres unmarked) [Example 63, [2-Chloro-4-fluoro-5-(7-morpholin-4-yl-quinazolin-4-yl)phenyl]-imidazo[1,2-b]pyridazin-6-ylmethanol], the IC50 was 0.5 to 5 µM.
